# Patent US20230114728A1 (Venatorx Pharmaceuticals, Inc., priority 2019, published 2023)
# Where two headings read alike, the source gives them in different places.
# Assays:
# [1] = tested on: A. baumannii CDC-0045 producing TEM-1D, OXA-23, and OXA-69; assay: Broth microdilution MIC in iron-depleted CAMHB (IDM); type: cell-based; conditions: Acinetobacter baumannii, read-out: Minimum Inhibitory Concentration, CDC-0045
# P. aeruginosa CDC-0110 = assay: as above; type: cell-based; conditions: Pseudomonas aeruginosa, CDC0110, read-out: Minimum Inhibitory Concentration, P. aeruginosa CDC-0110
# Experimental: (§1) To determine the ability of test compounds to inhibit the growth bacterial strains under conditions of iron-depletion, classic cell based broth microdilution minimum inhibitory concentration (MIC) assays were employed. MIC assays are performed according to CLSI methods except where otherwise noted (CLSI, 2018 and CLSI, 2019). The reference type strain E. coli ATCC 25922 was used to determine the ability of the PBP inhibitors to inhibit the growth of Enterobacteriaceae. Wild-type P. aeruginosa ATCC 27853, A. baumannii ATCC 17978 and A. baumannii ATCC 19606, along with the hyper-permeable P. aeruginosa ATCC 35151, an engineered efflux pump-compromised strain of P. aeruginosa (ΔmexAB-oprM), and an engineered efflux-pump compromised strain of A. baumannii IL123 (ABΔ3-ARAEcPore) were used to determine the ability of PBP inhibitors to penetrate the outer membrane of P. aeruginosa and A. baumannii and assess antibacterial activity against these important gram-negative organisms.
# (§2) Briefly, cryo-preserved bacterial cultures of challenge strains are streaked for isolation on appropriate agar medium, in this case cation-adjusted Mueller Hinton agar. Following incubation to allow growth of the colonies, plates are sealed with parafilm and stored refrigerated for up to two weeks. For preparation of assay inoculum and to ensure low variability, at least 5 colonies are picked from the agar plates with an inoculating loop and aseptically transferred to a culture tube containing 3 mL of iron-depleted cation-adjusted Mueller Hinton broth (IDM)—see below for IDM preparation. The broth culture is grown for 3-5 hours at 37° C. with shaking at 200 rpm. Meanwhile, 2-fold serial dilutions of test compounds are conducted in a 96-well plate with a final volume of 75 μL per well at 2-fold the final desired concentration. After the dilution plates are set up the growing cultures are then diluted in a cuvette containing IDM and the optical density is measured at 600 nm. The inoculum is diluted such that 75 μL of this culture in IDM results in a starting bacterial concentration of 2-8×10^5 CFU/mL when added to the dilution plates. The plates are incubated for 16-20 hours for Enterobacteriaceae and Pseudomonas and 20-24 hours for Acinetobacter at 37° C. The MIC values are read visually as the lowest concentration well with no bacterial growth.
# (§3) Method for Iron-Depleted Cation-Adjusted Mueller Hinton Broth (IDM) Preparation:
# (§4) • Prepare cation-adjusted Mueller Hinton broth as per the manufacturer's recommendations and autoclave. • Add 100 g/L Chelex 100 resin, cover with foil and incubate with stirring for 2 hours • Remove Chelex 100 resin by filtration with 0.45 μm filter flask • Add the following back to the medium: • CaCl2 dihydrate: 82.5 mg/L • MgCl2 hexahydrate: 94.1 mg/L • ZnSO4: 10 μM • Adjust pH of medium to 7.3 with 5 N HCl • Sterilize using a 0.22 µm filter flask
# P. aeruginosa ATCC 35151 = assay: as above; type: cell-based; conditions: Pseudomonas aeruginosa, ATCC35151; iron-depleted MHB (IDM); hyper-permeable strain; read-out: Minimum Inhibitory Concentration, P. aeruginosa ATCC 35151
# Experimental: (§5) Example IV: In Vitro Antibacterial Assays in Iron-Depleted Cation-Adjusted Mueller-Hinton Broth
# as §1, §2, §3, §4
# P. aeruginosa ATCC 27853 = assay: as above; type: cell-based; conditions: Pseudomonas aeruginosa
# Experimental: as §5, §1, §2, §3, §4
# [2] = tested on: P. aeruginosa CDC-0095 producing OXA-50, and PAO; assay: as above; type: cell-based; conditions: Pseudomonas aeruginosa, read-out: Minimum Inhibitory Concentration, P. aeruginosa CDC-0095
# Experimental: as §5, §1, §2, §3, §4
# N. gonorrhoeae PBP2 = biological target: T1, N. gonorrhoeae PBP2 (Neisseria gonorrhoeae, UniProt P08149); assay: Bocillin-FL fluorescence polarization competition binding assay, N. gonorrhoeae PBP2; conditions: fluorescence polarization competition binding assay using Bocillin-FL; read-out: N. gonorrhoeae PBP2 Potency
# T1 construct: made in house
# T1 sequence (P08149 whole entry): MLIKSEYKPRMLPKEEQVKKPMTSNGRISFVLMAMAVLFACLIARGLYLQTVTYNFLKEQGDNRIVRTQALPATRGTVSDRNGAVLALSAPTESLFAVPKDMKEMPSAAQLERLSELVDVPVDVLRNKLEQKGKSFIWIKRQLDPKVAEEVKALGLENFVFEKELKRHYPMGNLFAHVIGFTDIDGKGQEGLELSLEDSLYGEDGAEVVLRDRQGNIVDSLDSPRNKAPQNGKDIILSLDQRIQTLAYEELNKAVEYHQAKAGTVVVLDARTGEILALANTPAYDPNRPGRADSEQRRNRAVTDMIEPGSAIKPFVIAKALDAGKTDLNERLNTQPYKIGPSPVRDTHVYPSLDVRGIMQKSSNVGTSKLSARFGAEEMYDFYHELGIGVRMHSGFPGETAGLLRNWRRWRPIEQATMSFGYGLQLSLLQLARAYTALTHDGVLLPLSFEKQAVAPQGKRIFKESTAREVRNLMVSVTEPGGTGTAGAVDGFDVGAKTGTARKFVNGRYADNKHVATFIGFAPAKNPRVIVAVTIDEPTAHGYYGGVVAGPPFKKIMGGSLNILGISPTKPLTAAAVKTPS
# Description: Example I: Experimental Method for Penicillin-Binding Protein Binding Assays with Bocillin-FL Via Fluorescence Polarization
# To determine the ability of boronic acid-based test PBP inhibitors to bind Penicillin Binding Proteins (PBPs), Bocillin-FL (fluorescently-labeled penicillin V; ThermoFisher Scientific) was used in a fluorescence polarization (FP) competition binding assay to assess inhibitor binding to PBP2, PBP3 or PBP4 from Escherichia coli (K12), PBP3 from Pseudomonas aeruginosa (PA01), PBP1a, PBP2 and PBP3 from Acinetobacter baumannii (ATCC 19606), and PBP2 from Neiserria gonorrheae (FA19). PBPs were cloned and purified as described previously (E. coli PBPs, King, D. T, et al., ACS Infectious Diseases 2015, 1, 175-184; P. aeruginosa PBP3, Han et. al., PNAS 2010, 107 (51), 22002-22007; A. baumannii PBPs, Penwell et. al., Antimicrob. Agents Chemother. 2015, 59 (3), 1680-1689; N. gonorrhoeae PBP2, Singh et. al., J Biol. Chem. 2019, 294 (38), 14020-14032). To establish assay conditions for competition binding, enzyme titration/saturation binding experiments were initially performed. Bocillin-FL was prepared at 0.2 μM in a buffer comprised of 50 mM Hepes (pH 8.0), 300 mM NaCl and 5% (v/v) glycerol for reactions with E. coli, P. aeruginosa and N. gonorrhoeae PBPs, and 25 mM Tris (pH 8.0), 200 mM NaCl and 10% (v/v) glycerol and 0.005% (v/v) Tween 20 for reactions with A. baumannii PBPs. Saturation binding was performed by mixing 40 μl of PBP solutions ranging in concentrations from 0-24 μM with 40 μl of the 0.2 μM Bocillin-FL solution, in individual wells of a black 384-well microplate. FP was measured immediately upon mixing (Excitation, 490 nm; Emission, 520 nm; g-factor, 0.96), using a Cytation3 (BioTek) microplate reader and measured continuously for up to 120 minutes. […] The competition binding assay (80 μl final volume) was validated using beta-lactams and PBPs at final concentrations of: 1.5 μM, E. coli PBP3; 0.75 μM, P. aeruginosa PBP3; 1 μM A. baumannii PBP1a; 2.5 μM A. baumannii PBP2; 0.2 μM A. baumannii PBP3; and […] N. gonorrhoeae PBP2. Bocillin-FL was at 0.1 μM (0.05 μM with A. baumannii PBP1a) and beta-lactam concentrations ranged from 0-1000 μM. […] Bocillin-FL was added and the FP immediately measured for up to 60 minutes (90 minutes for E. coli PBP2). […] The beta-lactam potency was reported as the concentration of beta-lactam required to reduce the amount of PBP bound-Bocillin-FL by 50% (EC50). […] Binding assays for boronic acid PBP inhibitors were performed in an identical fashion for the respective PBPs
# [3] = ATCC27853, read-out: Minimum Inhibitory Concentration, P. aeruginosa ATCC 27853
structure (smiles),measurement,setting,value
"NCCN1CCN(C(=O)N[C@@H](C(=O)N[C@H]2Cc3ccc(F)c(C(=O)O)c3OB2O)c2c(F)cc(O)c(O)c2Cl)C(=O)C1=O (single isomer, unassigned) [Example 26]",MIC,[1],0.5 to 1 µg/mL
same,MIC,P. aeruginosa CDC-0110,0.5 to 1 µg/mL
same,MIC,P. aeruginosa ATCC 35151,0.25 µg/mL
same,MIC,P. aeruginosa ATCC 27853; [3],0.5 to 1 µg/mL
same,MIC,[2],32 to 64 µg/mL
"NCCCN1CCN(C(=O)N[C@@H](C(=O)N[C@H]2Cc3ccc(F)c(C(=O)O)c3OB2O)c2c(F)cc(O)c(O)c2Cl)C(=O)C1=O (single isomer, unassigned) [Example 27]",MIC,[1],0.5 to 1 µg/mL
same,MIC,P. aeruginosa CDC-0110,2 to 4 µg/mL
same,MIC,P. aeruginosa ATCC 35151,0.25 µg/mL
same,MIC,P. aeruginosa ATCC 27853; [3],0.5 to 1 µg/mL
same,MIC,[2],8 to 16 µg/mL
"NCCCN1CCN(C(=O)N[C@H](C(=O)N[C@H]2Cc3ccc(F)c(C(=O)O)c3OB2O)c2ccc(O)c(O)c2Cl)C(=O)C1=O (single isomer, unassigned) [Example 28]",MIC,[1],32 to 64 µg/mL
same,MIC,P. aeruginosa CDC-0110,8 to 16 µg/mL
same,MIC,P. aeruginosa ATCC 35151,0.25 µg/mL
same,MIC,"P. aeruginosa ATCC 27853; ATCC27853, iron-depleted MHB (IDM), read-out: Minimum Inhibitory Concentration, P. aeruginosa ATCC 27853",2 to 4 µg/mL
same,MIC,[2],32 to 64 µg/mL
"CCN1CCN(C(=O)N[C@@H](C(=O)N[C@H]2Cc3cccc(C(=O)O)c3OB2O)c2cc(O)cc(O)c2)C(=O)C1=O (single isomer, unassigned) [Example 82]",EC50,N. gonorrhoeae PBP2,< 10 µM
"NCCN1CCN(C(=O)N[C@H](C(=O)N[C@H]2Cc3cccc(C(=O)O)c3OB2O)c2ccc(C(=O)O)cc2)C(=O)C1=O (single isomer, unassigned) [Example 83]",EC50,N. gonorrhoeae PBP2,< 10 µM
"NCCN1CCN(C(=O)N[C@@H](C(=O)N[C@H]2Cc3cccc(C(=O)O)c3OB2O)c2ccc(C(=O)O)cc2)C(=O)C1=O (single isomer, unassigned) [Example 84]",EC50,N. gonorrhoeae PBP2,< 10 µM
"NCCN1CCN(C(=O)N[C@H](C(=O)N[C@H]2Cc3cccc(C(=O)O)c3OB2O)c2ccc(O)cc2Cl)C(=O)C1=O (single isomer, unassigned) [Example 85]",EC50,N. gonorrhoeae PBP2,10 to 30 µM
"CCN1CCN(C(=O)N[C@@H](C(=O)N[C@H]2Cc3cccc(C(=O)O)c3OB2O)c2cc(Cl)c(O)cc2Cl)C(=O)C1=O (single isomer, unassigned) [Example 91]",EC50,N. gonorrhoeae PBP2,< 10 µM
"CCN1CCN(C(=O)N[C@H](C(=O)N[C@H]2Cc3cccc(C(=O)O)c3OB2O)c2cc(Cl)c(O)cc2Cl)C(=O)C1=O (single isomer, unassigned) [Example 92]",EC50,N. gonorrhoeae PBP2,< 10 µM
"O=C(O)c1ccc(C(NC(=O)N2CCN(CCNC(=O)c3ccc(O)c(O)c3Cl)C(=O)C2=O)C(=O)N[C@H]2Cc3ccc(F)c(C(=O)O)c3OB2O)cc1F (stereo partly drawn) [Example 11, (3R)-3-(2-(4-carboxy-3-fluorophenyl)-2-(4-(2-(2-chloro-3,4-dihydroxybenzamido)ethyl)-2,3-dioxopiperazine-1-carboxamido)acetamido)-7-fluoro-2-hydroxy-3,4-dihydro-2H-benzo[e][1,2]oxaborinine-8-carboxylic acid]",MIC,P. aeruginosa ATCC 35151,0.25 µg/mL
same,MIC,P. aeruginosa ATCC 27853; [3],2 to 4 µg/mL
"CCN1CCN(C(=O)NC(C(=O)N[C@H]2Cc3cccc(C(=O)O)c3OB2O)c2ccc(C(=O)O)c(F)c2)C(=O)C1=O (stereo partly drawn) [Example 31, (3R)-3-(2-(4-carboxy-3-fluorophenyl)-2-(4-ethyl-2,3-dioxopiperazine-1-carboxamido)acetamido)-2-hydroxy-3,4-dihydro-2H-benzo[e][1,2]oxaborinine-8-carboxylic acid]",EC50,N. gonorrhoeae PBP2,< 10 µM
"CCN1CCN(C(=O)NC(C(=O)N[C@H]2Cc3cccc(C(=O)O)c3OB2O)c2ccc(C(N)=O)c(O)c2)C(=O)C1=O (stereo partly drawn) [Example 45, (3R)-3-(2-(4-carbamoyl-3-hydroxyphenyl)-2-(4-ethyl-2,3-dioxopiperazine-1-carboxamido)acetamido)-2-hydroxy-3,4-dihydro-2H-benzo[e][1,2]oxaborinine-8-carboxylic acid]",EC50,N. gonorrhoeae PBP2,< 10 µM
"CCN1CCN(C(=O)NC(C(=O)N[C@H]2Cc3cccc(C(=O)O)c3OB2O)c2cccc(O)c2)C(=O)C1=O (stereo partly drawn) [Example 68, (3R)-3-(2-(4-ethyl-2,3-dioxopiperazine-1-carboxamido)-2-(3-hydroxyphenyl)acetamido)-2-hydroxy-3,4-dihydro-2H-benzo[e][1,2]oxaborinine-8-carboxylic acid]",EC50,N. gonorrhoeae PBP2,< 10 µM
"CCN1CCN(C(=O)NC(C(=O)N[C@H]2Cc3cccc(C(=O)O)c3OB2O)c2cccc(N)c2)C(=O)C1=O (stereo partly drawn) [Example 72, (3R)-3-(2-(3-aminophenyl)-2-(4-ethyl-2,3-dioxopiperazine-1-carboxamido)acetamido)-2-hydroxy-3,4-dihydro-2H-benzo[e][1,2]oxaborinine-8-carboxylic acid]",EC50,N. gonorrhoeae PBP2,< 10 µM
"NCCN1CCN(C(=O)NC(C(=O)N[C@H]2Cc3cccc(C(=O)O)c3OB2O)c2c(F)cc(O)cc2Cl)C(=O)C1=O (stereo partly drawn) [Example 94, (3R)-3-(2-(4-(2-aminoethyl)-2,3-dioxopiperazine-1-carboxamido)-2-(2-chloro-6-fluoro-4-hydroxyphenyl)acetamido)-2-hydroxy-3,4-dihydro-2H-benzo[e][1,2]oxaborinine-8-carboxylic acid]",EC50,N. gonorrhoeae PBP2,< 10 µM
"CCN1CCN(C(=O)NC(C(=O)N[C@H]2Cc3cccc(C(=O)O)c3OB2O)c2c(F)cc(O)cc2Cl)C(=O)C1=O (stereo partly drawn) [Example 95, (3R)-3-(2-(2-chloro-6-fluoro-4-hydroxyphenyl)-2-(4-ethyl-2,3-dioxopiperazine-1-carboxamido)acetamido)-2-hydroxy-3,4-dihydro-2H-benzo[e][1,2]oxaborinine-8-carboxylic acid]",EC50,N. gonorrhoeae PBP2,< 10 µM
